Test results as given in US6774132B1, “Spirooxindole derivatives that act as analgesics” (AstraZeneca AB, priority 1999, dated 2004).

melting point: 110 to 112 °C
SMILES: CCCN1CCCC2(C1)NC(=O)c1ccccc12.Cl (stereo not shown)
